Experimental findings from ChEMBL document CHEMBL3638768, “(aza)indole derivative and use thereof for medical purposes” (2015) are described below.

The assay deals with Xanthine dehydrogenase/oxidase (Bos taurus, UniProt P80457). The experiment in a line: Inhibition Assay: Test compounds were dissolved in DMSO (Wako) at 40 mM concentration and then diluted to intended concentrations with phosphate-buffered saline (PBS). Xanthine oxidase (from bovine milk, Sigma) was prepared with phosphate-buffered saline (PBS) at 0.02 units/mL, and then the solution was added to 96 well plates at 50 μL/well. In addition, test compounds diluted with PBS were added at 50 μL/well. Xanthine (Wako) at 200 μM prepared with PBS was added at 100 μL/well, and the reaction was conducted for 10 minutes at room temperature. Absorbance at 290 nm was measured using a microplate reader SpectraMax Plus 384 (Molecular device). The absorbance under a condition without xanthine is 0%, and control without test compounds is 100%.

As usually defined, the IC50 is the concentration that gives 50% inhibition.

Chain of Xanthine dehydrogenase/oxidase (P80457 whole entry): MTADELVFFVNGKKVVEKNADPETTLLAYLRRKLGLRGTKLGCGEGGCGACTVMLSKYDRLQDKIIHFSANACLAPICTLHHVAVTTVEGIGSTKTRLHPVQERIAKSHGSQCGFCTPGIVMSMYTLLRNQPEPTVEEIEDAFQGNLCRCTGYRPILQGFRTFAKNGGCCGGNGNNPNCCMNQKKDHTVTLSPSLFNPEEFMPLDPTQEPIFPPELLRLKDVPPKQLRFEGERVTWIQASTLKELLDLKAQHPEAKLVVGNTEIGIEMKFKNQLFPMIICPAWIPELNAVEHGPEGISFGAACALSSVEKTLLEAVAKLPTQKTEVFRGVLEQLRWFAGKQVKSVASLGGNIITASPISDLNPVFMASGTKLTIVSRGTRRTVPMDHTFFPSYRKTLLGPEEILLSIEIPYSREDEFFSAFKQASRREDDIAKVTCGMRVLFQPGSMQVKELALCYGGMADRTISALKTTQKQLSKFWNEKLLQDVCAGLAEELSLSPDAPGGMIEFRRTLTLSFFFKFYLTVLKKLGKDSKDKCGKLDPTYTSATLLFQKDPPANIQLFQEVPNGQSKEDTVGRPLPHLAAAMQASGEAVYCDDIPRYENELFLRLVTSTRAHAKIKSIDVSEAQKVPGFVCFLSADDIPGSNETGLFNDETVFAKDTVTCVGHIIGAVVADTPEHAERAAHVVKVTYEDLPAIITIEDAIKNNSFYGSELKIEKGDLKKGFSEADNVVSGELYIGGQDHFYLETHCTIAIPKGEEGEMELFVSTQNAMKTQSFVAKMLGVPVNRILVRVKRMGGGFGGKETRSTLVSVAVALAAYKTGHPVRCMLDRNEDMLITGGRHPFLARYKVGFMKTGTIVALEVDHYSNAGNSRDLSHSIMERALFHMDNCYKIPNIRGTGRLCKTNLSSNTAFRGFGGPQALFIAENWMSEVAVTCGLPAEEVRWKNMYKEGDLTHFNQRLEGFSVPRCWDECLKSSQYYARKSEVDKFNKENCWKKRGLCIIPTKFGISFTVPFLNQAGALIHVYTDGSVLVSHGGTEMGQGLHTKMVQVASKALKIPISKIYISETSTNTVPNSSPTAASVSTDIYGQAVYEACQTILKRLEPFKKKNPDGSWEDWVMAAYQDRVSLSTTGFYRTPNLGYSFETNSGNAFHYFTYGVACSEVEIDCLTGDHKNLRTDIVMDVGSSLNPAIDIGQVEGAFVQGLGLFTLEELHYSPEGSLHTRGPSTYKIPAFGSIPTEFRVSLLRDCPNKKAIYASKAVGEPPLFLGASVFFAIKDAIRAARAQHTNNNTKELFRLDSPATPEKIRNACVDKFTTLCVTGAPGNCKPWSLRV

For the molecule `N#Cc1cn(-c2ccc(C(=O)O)cn2)c2ccccc12`, the IC50 is 72.9 nM.
